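Following 48 hours of exposure in 96-well plates, responses at five concentrations were used to interpolate endpoints linearly. GI50 is the concentration that inhibits growth by half. TGI marks complete inhibition of growth.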
Legend:
Test in all cases: inhibition of tumour cell growth, NCI panel, 48 h
MCF7 breast = tested on: MCF7 breast
OVCAR-4 ovarian = tested on: OVCAR-4 ovarian
A549 NSCLC = tested on: A549 NSCLC
SN12C renal = tested on: SN12C renal
PC-3 prostate = tested on: PC-3 prostate
NCI-H460 lung = tested on: NCI-H460 lung
HOP-92 NSCLC = tested on: HOP-92 NSCLC
NCI/ADR-RES ovarian = tested on: NCI/ADR-RES ovarian
SK-MEL-28 melanoma = tested on: SK-MEL-28 melanoma
SK-MEL-2 melanoma = tested on: SK-MEL-2 melanoma
RXF 393 renal = tested on: RXF 393 renal
MDA-MB-231 breast = tested on: MDA-MB-231 breast
KM12 colon = tested on: KM12 colon
ACHN renal = tested on: ACHN renal
BT-549 breast = tested on: BT-549 breast
SNB-19 CNS = tested on: SNB-19 CNS
RPMI-8226 leukemia = tested on: RPMI-8226 leukemia
OVCAR-8 ovarian = tested on: OVCAR-8 ovarian
U251 CNS = tested on: U251 CNS
SK-OV-3 ovarian = tested on: SK-OV-3 ovarian
HOP-62 NSCLC = tested on: HOP-62 NSCLC
IGROV1 ovarian = tested on: IGROV1 ovarian
HCT-15 colon = tested on: HCT-15 colon
COLO 205 colon = tested on: COLO 205 colon
HT29 colon = tested on: HT29 colon
MOLT-4 leukemia = tested on: MOLT-4 leukemia
CAKI-1 renal = tested on: CAKI-1 renal
SR leukemia = tested on: SR leukemia
MDA-MB-435 = tested on: MDA-MB-435
HCC-2998 colon = tested on: HCC-2998 colon
UO-31 renal = tested on: UO-31 renal
SNB-75 CNS = tested on: SNB-75 CNS
M14 melanoma = tested on: M14 melanoma
DU-145 prostate = tested on: DU-145 prostate
UACC-62 melanoma = tested on: UACC-62 melanoma
SW-620 colon = tested on: SW-620 colon
HS 578T breast = tested on: HS 578T breast
OVCAR-5 ovarian = tested on: OVCAR-5 ovarian
CCRF-CEM leukemia = tested on: CCRF-CEM leukemia
A498 renal = tested on: A498 renal
MALME-3M melanoma = tested on: MALME-3M melanoma
HCT-116 colon = tested on: HCT-116 colon
786-0 renal = tested on: 786-0 renal
SK-MEL-5 melanoma = tested on: SK-MEL-5 melanoma
TK-10 renal = tested on: TK-10 renal
SF-539 CNS = tested on: SF-539 CNS
OVCAR-3 ovarian = tested on: OVCAR-3 ovarian
NCI-H522 lung = tested on: NCI-H522 lung
SF-268 CNS = tested on: SF-268 CNS
UACC-257 melanoma = tested on: UACC-257 melanoma

O=C1Nc2cc(OC(F)(F)F)ccc2Oc2ccc(-c3ccnc(N4CCNCC4)c3)cc21
GI50 (MCF7 breast): 840 nM | TGI (MCF7 breast): > 100000 nM | GI50 (OVCAR-4 ovarian): 1620 nM | TGI (OVCAR-4 ovarian): 3250 nM | GI50 (A549 NSCLC): 1130 nM | TGI (A549 NSCLC): 2510 nM | GI50 (SN12C renal): 1790 nM | TGI (SN12C renal): 3620 nM | GI50 (PC-3 prostate): 1290 nM | TGI (PC-3 prostate): 2870 nM | GI50 (NCI-H460 lung): 655 nM | TGI (NCI-H460 lung): 1940 nM | GI50 (HOP-92 NSCLC): 1170 nM | TGI (HOP-92 NSCLC): 2510 nM | GI50 (NCI/ADR-RES ovarian): 1610 nM | TGI (NCI/ADR-RES ovarian): 3500 nM | GI50 (SK-MEL-28 melanoma): 1390 nM | TGI (SK-MEL-28 melanoma): 2730 nM | GI50 (SK-MEL-2 melanoma): 1470 nM | TGI (SK-MEL-2 melanoma): 2930 nM | GI50 (RXF 393 renal): 1390 nM | TGI (RXF 393 renal): 2840 nM | GI50 (MDA-MB-231 breast): 1610 nM | TGI (MDA-MB-231 breast): 3180 nM | GI50 (KM12 colon): 900 nM | TGI (KM12 colon): 2740 nM | GI50 (ACHN renal): 1680 nM | TGI (ACHN renal): 3050 nM | GI50 (BT-549 breast): 1950 nM | TGI (BT-549 breast): 3740 nM | GI50 (SNB-19 CNS): 1550 nM | TGI (SNB-19 CNS): 3140 nM | GI50 (RPMI-8226 leukemia): 1840 nM | TGI (RPMI-8226 leukemia): 4780 nM | GI50 (OVCAR-8 ovarian): 1580 nM | TGI (OVCAR-8 ovarian): 3000 nM | GI50 (U251 CNS): 1460 nM | TGI (U251 CNS): 2850 nM | GI50 (SK-OV-3 ovarian): 2570 nM | TGI (SK-OV-3 ovarian): 6790 nM | GI50 (HOP-62 NSCLC): 1600 nM | TGI (HOP-62 NSCLC): 3260 nM | GI50 (IGROV1 ovarian): 1200 nM | TGI (IGROV1 ovarian): 2550 nM | GI50 (HCT-15 colon): 864 nM | TGI (HCT-15 colon): 4560 nM | GI50 (COLO 205 colon): 1540 nM | TGI (COLO 205 colon): 3080 nM | GI50 (HT29 colon): 764 nM | TGI (HT29 colon): 2060 nM | GI50 (MOLT-4 leukemia): 1080 nM | TGI (MOLT-4 leukemia): 3290 nM | GI50 (CAKI-1 renal): 1150 nM | TGI (CAKI-1 renal): 2430 nM | GI50 (SR leukemia): 345 nM | TGI (SR leukemia): 1820 nM | GI50 (MDA-MB-435): 282 nM | TGI (MDA-MB-435): 1030 nM | GI50 (HCC-2998 colon): 1330 nM | TGI (HCC-2998 colon): 2690 nM | GI50 (UO-31 renal): 1340 nM | TGI (UO-31 renal): 2660 nM | GI50 (SNB-75 CNS): 1500 nM | TGI (SNB-75 CNS): 2860 nM | GI50 (M14 melanoma): 1230 nM | TGI (M14 melanoma): 2540 nM | GI50 (DU-145 prostate): 1650 nM | TGI (DU-145 prostate): 3080 nM | GI50 (UACC-62 melanoma): 1650 nM | TGI (UACC-62 melanoma): 3150 nM | GI50 (SW-620 colon): 516 nM | TGI (SW-620 colon): 1730 nM | GI50 (HS 578T breast): 1700 nM | TGI (HS 578T breast): 3980 nM | GI50 (OVCAR-5 ovarian): 1460 nM | TGI (OVCAR-5 ovarian): 3290 nM | GI50 (CCRF-CEM leukemia): 1870 nM | TGI (CCRF-CEM leukemia): 6760 nM | GI50 (A498 renal): 1600 nM | TGI (A498 renal): 2950 nM | GI50 (MALME-3M melanoma): 1260 nM | TGI (MALME-3M melanoma): 2740 nM | GI50 (HCT-116 colon): 1000 nM | TGI (HCT-116 colon): 2170 nM | GI50 (786-0 renal): 1530 nM | TGI (786-0 renal): 2890 nM | GI50 (SK-MEL-5 melanoma): 1620 nM | TGI (SK-MEL-5 melanoma): 3010 nM | GI50 (TK-10 renal): 1500 nM | TGI (TK-10 renal): 3470 nM | GI50 (SF-539 CNS): 1580 nM | TGI (SF-539 CNS): 2980 nM | GI50 (OVCAR-3 ovarian): 1120 nM | TGI (OVCAR-3 ovarian): 2490 nM | GI50 (NCI-H522 lung): 1590 nM | TGI (NCI-H522 lung): 3160 nM | GI50 (SF-268 CNS): 1700 nM | TGI (SF-268 CNS): 3480 nM | GI50 (UACC-257 melanoma): 1550 nM | TGI (UACC-257 melanoma): 3050 nM

From PubChem BioAssay (NCI)
